Data reported in ChEMBL document CHEMBL1141624, “Discovery of small molecule benzimidazole antagonists of the chemokine receptor CXCR3” (Bioorg Med Chem Lett, 2008).
In brackets after ≈: the same amount, converted by molar mass.

Tests used:
[1] = molecular target: T1, C-X-C chemokine receptor type 3 (Homo sapiens, UniProt P49682); assay: Displacement of [125]CXCL10 from human CXCR3 expressed in CHO cells; format: cell-based
T1 sequence (P49682 whole entry): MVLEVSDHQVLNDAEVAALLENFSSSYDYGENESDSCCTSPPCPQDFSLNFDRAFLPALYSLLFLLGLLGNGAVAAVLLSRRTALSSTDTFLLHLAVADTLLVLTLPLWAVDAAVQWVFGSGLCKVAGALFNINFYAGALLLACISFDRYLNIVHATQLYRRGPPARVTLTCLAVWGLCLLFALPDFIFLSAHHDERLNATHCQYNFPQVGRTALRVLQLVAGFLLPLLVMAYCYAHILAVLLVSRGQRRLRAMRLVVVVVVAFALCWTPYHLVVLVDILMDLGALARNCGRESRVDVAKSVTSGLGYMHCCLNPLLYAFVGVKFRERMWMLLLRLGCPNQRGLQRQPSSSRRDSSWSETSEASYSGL

[2] = molecular target: T1, C-X-C chemokine receptor type 3; assay: Antagonist activity at human CXCR3 expressed in CHO cells by FLIPR-based calcium mobilization assay; format: functional, cell-based
[3] = Half life in SJL mouse at 20 mg/kg, po; format: ADME, organism-based; set-up: dose 20 mg/kg, route oral; details: in vivo
[4] = Bioavailability in SJL mouse at 20 mg/kg, po; format: ADME, organism-based; details: in vivo
Liver microsomes = assay: Stability in rat liver microsome; format: ADME
[5] = Aqueous solubility of the compound; format: physicochemical; details: buffer
[6] = Protein binding in rat plasma; format: ADME, cell-free; details: read-out: PPB (converted)
[7] = Clearance in SJL mouse at 10 mg/kg, po and 5 mg/kg, iv; format: ADME, organism-based; details: in vivo

Row | IC50 [1] [µM] | also measured | SMILES
1 | 0.5 | IC50 [2]: 0.4 µM | CCCc1cccc2c1n(C)c(=N)n2CC(=O)c1ccc(Cl)cc1
2 | 0.8 |  | Cn1c(=N)n(CC(=O)c2ccc(Br)cc2)c2ccccc21
3 | 0.1 | half-life [3]: 4.9 h; bioavailability [4]: 57%; Stability (Liver microsomes): 49%; solubility [5]: 79 µM (≈ 24.8 µg/mL); fraction unbound [6]: 0.15; IC50 [2]: 0.08 µM; clearance [7]: 95 mL/min/kg | Cc1cccc2c1n(C)c(=N)n2CC(=O)c1ccc(Cl)cc1
4 | 0.3 |  | Cn1c(=N)n(CC(=O)c2ccc(Cl)cc2)c2cccc(Cl)c21
5 | 1 | IC50 [2]: 5 µM | Cc1ccc2c(c1)n(C)c(=N)n2CC(=O)c1ccc(Cl)cc1
6 | 16 |  | Cn1c(=N)n(CC(=O)c2cccc(Cl)c2)c2ccccc21
7 | 0.03 | IC50 [2]: 0.07 µM | CCc1cccc2c1n(C)c(=N)n2CC(=O)c1ccc(Cl)cc1
8 | 4 |  | Cn1c(=N)n(CC(=O)c2ccc(Cl)c(Cl)c2)c2ccccc21
9 | 11 |  | C[S+]([O-])c1nc2ccccc2n1CC(=O)c1ccc([N+](=O)[O-])cc1 (stereo not given)
10 | > 50 |  | CC(=O)c1nc2cc(-c3ccccc3)ccc2n1CC(=O)c1ccc(Br)cc1
11 | > 50 |  | COc1ccc2c(c1)nc(C(C)=O)n2CC(=O)c1ccc(Br)cc1
12 | > 50 |  | COc1ccc2nc(C(C)=O)n(CC(=O)c3ccc(Br)cc3)c2c1
13 | > 100 |  | CC(=O)c1nc2ccccc2n1CC(=O)c1ccccc1
14 | 2 |  | CC(=O)c1nc2ccccc2n1CC(=O)c1ccc(Br)cc1
15 | 0.8 | solubility [5]: 84 µM (≈ 25.2 µg/mL); IC50 [2]: 9 µM | Cn1c(=N)n(CC(=O)c2ccc(Cl)cc2)c2ccccc21
16 | 0.8 |  | COc1cccc2c1n(C)c(=N)n2CC(=O)c1ccc(Br)cc1

Row | IC50 [1] [µM] | also measured | SMILES
17 | 3 | solubility [5]: 4.5 µM (≈ 1.45 µg/mL) | CC(=O)c1nc2ccccc2n1CC(=O)c1ccc([N+](=O)[O-])cc1
18 | 11 |  | Cn1c(=N)n(CCc2ccc(Br)cc2)c2ccccc21
19 | 3 |  | Cn1c(=N)n(C[S+]([O-])c2ccc(Cl)cc2)c2ccccc21 (stereo not given)
20 | 1 |  | COCC/N=c1/n(C)c2ccccc2n1CC(=O)c1ccc(Br)cc1
21 | 20 |  | CC(O)c1nc2ccccc2n1CC(=O)c1ccc([N+](=O)[O-])cc1 (stereo not given)
22 | 0.7 |  | Cn1c(=N)n(CC(=O)c2ccc(Cl)cc2)c2cccc(C(F)(F)F)c21
23 | 8 |  | Cc1ccc2c(c1)n(CC(=O)c1ccc(Cl)cc1)c(=N)n2C
24 | 40 |  | Cn1c(=N)n(CC(O)c2ccc(Br)cc2)c2ccccc21 (stereo not given)
25 | 6 |  | Cn1c(=N)n(CCCC(=O)c2ccc(Br)cc2)c2ccccc21
26 | > 100 |  | CC(=O)c1nc2ccccc2n1CC(=O)c1ccc(C#N)cc1
27 | 8 |  | CC(=O)c1nc2ccccc2n1CC(=O)c1ccc(Cl)cc1
28 | 3 |  | COc1cccc2c1nc(C(C)=O)n2CC(=O)c1ccc(Br)cc1
29 | 22 |  | Cn1c(=N)n(CC(=O)c2ccccc2Cl)c2ccccc21
30 | > 50 |  | CC(=O)c1nc2ccc(-c3ccccc3)cc2n1CC(=O)c1ccc(Br)cc1
31 | 50 |  | CC(=O)/N=c1/n(C)c2ccccc2n1CC(=O)c1ccc([N+](=O)[O-])cc1
32 | 0.8 |  | C/N=c1/n(C)c2ccccc2n1CC(=O)c1ccc(Cl)cc1
